{"source": "ChEMBL document CHEMBL5120970", "about": "“Cryptic Epoxytiglianes from the Kernels of the Blushwood Tree (Fontainea picrosperma)” (J Nat Prod, 2022)", "key": {"[1]": {"tested_on": "Neutrophil", "test": "Induction of ROS production in human polymorphonuclear neutrophils incubated for 10 mins by DHE staining based fluorescence assay", "type": "functional, cell-based"}, "[2]": {"tested_on": "K562", "test": "Cytotoxicity against PKC sensitive human K562 cells assessed as inhibition of cell growth measured after 7 days by Cell Titer Aqueous96 one solution reagent assay", "type": "functional, cell-based", "settings": "K562, 168 h"}}}
{"smiles": "C/C=C(\\C)C(=O)O[C@@H]1[C@@H](C)[C@@]2(O)[C@H]([C@@H]3C(C)(C)[C@]13OC(=O)[C@@H](C)CC)[C@@H]1O[C@]1(COC(=O)CCCCCCC/C=C\\C/C=C\\CCCCC)[C@@H](O)[C@]1(O)C(=O)C(C)=C[C@H]12", "values": [{"measurement": "EC50", "setting": "[1]", "value": "> 3630", "unit": "nM"}, {"measurement": "IC50", "setting": "[2]", "value": 124, "unit": "nM"}]}
{"smiles": "C/C=C(\\C)C(=O)O[C@@H]1[C@@H](C)[C@@]2(O)[C@H]([C@@H]3C(C)(C)[C@]13OC(=O)[C@@H](C)CC)[C@@H]1O[C@]1(CO)[C@@H](O)[C@]1(O)C(=O)C(C)=C[C@H]12", "note": "[TIGILANOL TIGLATE]", "values": [{"measurement": "EC50", "setting": "[1]", "value": 125, "unit": "nM"}, {"measurement": "IC50", "setting": "[2]", "value": 11.9, "unit": "nM"}]}
